# Data as given in patent US11351218B2, “Composition for preventing or treating glioblastoma comprising Platycodon grandiflorum A. De Candolle, Scutellaria baicalensis, Phellodendron amurense Ruprecht or Rubus coreanus” (University-Industry Cooperation Group of Kyung Hee …, priority 2019, dated 2022).
# Columns and labels:
# U87MG and U373MG cells = test: Immunofluorescence of SQSTM1/p62 with GFP-LC3B in GBM cells; type: cell-based, human; details: PD 10 μM or BafA1 (100 μM), 24 hours
# Description: The cells expressing GFP-LC3B (green) were treated with DMSO, PD (10 μM), or BafA1 (100 μM) for 24 hours, followed by staining with an anti-SQSTM1 antibody (red) and DAPI (blue). The merged images (yellow) indicate co-localization between LC3 and p62. The panels on the right are higher-magnification images of the boxed regions.
# (§1) Cultured cells seeded in plates with microscope coverslips were transfected with a pGFP-LC3B plasmid using Lipofectamine 3000 (Thermo Fisher Scientific) according to the manufacturer's instructions. After the transfection, the cells were fixed with 4% paraformaldehyde (PFA) in phosphate-buffered saline (PBS) at room temperature for 10 minutes. The images were examined under a laser confocal microscope (Zeiss, Oberkochen, Baden-Wurttemberg, Germany).
# Cells treated with the materials were permeabilized with 0.01% Triton X-100 in PBS. After blocking the resulting cells in 2% bovine serum albumin (BSA) in PBS, they were incubated at 4° C. with a primary antibody against SQSTM1/p62 (Santa Cruz) overnight. The stained cells were incubated with an Alexa594-conjugated secondary antibody (Invitrogen, Calif., USA). The images were examined under a Zeiss laser confocal microscope.
# U373 cells = test: GFP-LC3B puncta assay (confocal microscopy), U373 cells; type: cell-based, human; details: U373, 10 μM PD, 24 hours
# Description: The cells transiently expressing GFP-LC3 (green) were treated with DMSO or PD (10 μM) for 24 hours and analyzed by confocal microscopy. Nuclei were stained with DAPI (blue). Quantification shown on the right graph represents mean GFP-LC3B puncta per cells from three independent experiments±SD.
# as §1
# To confirm the western blot data, the LC3B accumulation in GBM cells was monitored using a confocal microscope. Both U87MG and U373MG cells transfected with a green fluorescent protein (GFP)-tagged LC3 expression plasmid were treated with 10 μM PD for 24 hours and examined under a confocal microscope.
# [1] = system: A549, H358, MCF7, HT29 and HepG2 cells; test: Cell morphology (vacuoles) under optical microscope in various cancer cell lines; type: cell-based; details: PG 500 μg/mL or PD 10 μM, 24 hours
# cathepsin B and D = test: Immunoblot of cathepsin B and D processing in GBM cells; type: cell-based, human; details: PD 5 μM and 10 μM, 48 hours
# Description: Immunoblot analyses for the processing of endogenous CTSB and CTSD are shown (upper, immature form/lower, mature form of CTSB and CTSD). GAPDH was used as a loading control.
# (§2) Cells treated with the concentrations and materials described in FIGS. 1-3B, 7, 8, 10, 13, 16, 18, and 20 were lysed in buffer containing 20 mM Tris-HCl (pH 7.5), 150 mM NaCl, 1 mM EDTA, 1 mM Na2EDTA, 1 mM EGTA, 1% NP-40, 1% sodium deoxycholate, 1 mM Na3VO4, 1 mM MPI, 1 mM PMSF, and PI cocktails for 15 to 20 minutes on ice. Cell lysates were separated by SDS-PAGE and transferred to nitrocellulose membranes. Immunodetection was performed with the following primary antibodies: rabbit anti-LC3B, rabbit anti-cathepsin B, rabbit-anti GAPDH (Cell Signaling Technology, Danvers, Mass.), mouse anti-SQSTM1/p62, and goat anti-cathepsin D (Santa CruzKPL, Gaithersburg, Md., USA) were incubated at room temperature for 1 hour. The protein bands were detected with ECL western Blotting Substrate (Thermo Fisher Scientific, Waltham, Mass., USA).
# To confirm whether PD functions as an autophagy inhibitor, the effects of PD on lysosomal proteases, cathepsin B and D, were examined Autophagy is a lysosome-mediated and self-degradative process that requires lysosomal cysteine proteases known as cathepsins. Since pro-cathepsins are cleaved into a mature form in lysosomes, the 33 kD active cleaved form of cathepsins has been commonly used as a marker for lysosomal activity. As can be confirmed in FIG. 13, while the mature forms of cathepsin B and D proteins were decreased, immature forms of those protein were increased after PD treatment in U87MG and U373MG cells, implying that PD suppresses a lysosomal function by downregulating the lysosomal proteolytic activity.
# [2] = system: PARP, caspase-3, BCL-2 and BAX; test: Immunoblot of apoptosis markers (PARP, caspase-3, BCL-2, BAX) in GBM cells; type: cell-based, human; details: PD, 24 hours
# Description: FIGS. 7A and 7B show the results that PD induces non-apoptotic cell death. […] GAPDH was used as a loading control. […] Data shown represent the means of quintuplicate measurements which were repeated three times. The results are presented as a percentage of control (means±SD).
# as §2
# Therefore, whether PD-mediated autophagy inhibition promotes apoptosis in GBM cells was examined by western blot analysis. Activation of caspase-3 and cleavage of its substrate, PARP, are hallmarks of apoptosis. […]
# cell-surface LDLR = test: Cell surface LDLR analysis by flow cytometry, normal astrocytes; type: cell-based, human; details: PD 10 μM or U18666a 1 μM, 24 hours
# Description: FIGS. 16A to 16D show the results that PD increases the expression of LDLR on cell surfaces in GBM cells. […] GAPDH was used as a loading control. […] GAPDH was used as a loading control.
# Cells treated as described in FIG. 16 were separated from plates and resuspended in PBS. After washing with 1% BSA in PBS, the cells were incubated with a primary antibody against human LDLR (Abcam) for 30 minutes. Then, the cells were washed before incubation with an Alexa-Fluor 488-conjugated secondary antibody (Invitrogen) for 30 minutes. The stained cells were washed and resuspended. Fluorescence was analyzed by a FACScalibur flow cytometer (Becton Dickinson, San Jose, Calif., USA) using CellQuest™ software.
# Brain is the most cholesterol-rich organ of the body, containing about 20% of total body cholesterol. […] As can be confirmed in FIG. 16A, in consistent with these reports, the LDLR protein level was markedly elevated in U87MG and U373MG cells relative to normal human astrocytes. […] Then, the cell surface expression of LDLR was confirmed by flow cytometry.
compound,measurement,setting,value
"C[C@@H]1O[C@@H](O[C@H]2[C@H](OC(=O)[C@]34CCC(C)(C)C[C@H]3C3=CC[C@@H]5[C@@]6(C)C[C@H](O)[C@H](O[C@@H]7O[C@H](CO)[C@@H](O)[C@H](O)[C@H]7O)C(CO)(CO)[C@@H]6CC[C@@]5(C)[C@]3(C)C[C@H]4O)OC[C@H](O)[C@@H]2O)[C@H](O)[C@H](O)[C@H]1O[C@@H]1OC[C@@H](O)[C@H](O[C@@H]2OC[C@](O)(CO)[C@H]2O)[C@H]1O [PD, platycodin D]",p62 staining and colocalization with GFP-LC3B puncta,U87MG and U373MG cells,increase
same,fold increase of GFP-LC3 puncta per cell vs DMSO,U373 cells,8.9 fold
same,GFP-LC3 puncta per cell,U373 cells; mean±SD,32.84±3.98
same,vacuoles,[1],visible vacuoles were observed
same,immature forms of cathepsin B and D proteins,cathepsin B and D,increased
same,mature forms of cathepsin B and D proteins,cathepsin B and D,decreased
same,caspase-3 activation and PARP cleavage,[2],no significant induction
same,expressions of Bcl2 and BAX,[2],not changed
same,changes in peak shift (cell surface LDLR),cell-surface LDLR,very negligible
